Assay results published in patent US20060040901A1, “Derivatives of 1,3-cyclic propandiol phosphate and their action as cell stimulants” (YEDA RESEARCH AND DEVELOPMENT CO. Ltd., priority 2002, published 2006).

Columns and labels:
[1] = test system: CHO cells; test: Cell signaling analysis: tyrosine phosphorylation in CHO cells; format: cell-based, Chinese Hamster; details: for intracellular tyrosine phosphorylation: CHO cells, data not shown
Description: CHO cultures were grown as described above for PC12 cells. The cultures were divided into two groups and different compounds were added, followed by a period of incubation of from 1 to 30 minutes. Thus one CHO culture was incubated with 5 μM of 1,3-cyclic propandiol phosphate-2-methylamino at 37° C., the control being a similar CHO culture incubated with 1,3-cyclic glycerphosphate under the same conditions. […] In particular it was detected in a series of proteins with molecular weight of ≈35 kDa, ≈45 kDa, ≈60-70 kDa. as shown in FIG. 1.

[2] = test system: PC12 cells; test: Induction of neuronal outgrowth / neuronal differentiation in PC-12 cells; format: cell-based, rat; details: for neuronal differentiation / axonal outgrowth: data not shown; for neural outgrowth: 5 μM, after 8 days, microscope, FIG. 2
Description: (§1) In the presence of nerve growth factor these cells differentiate to neuronal cells. PC12 cells originated from rat pheochromocytoma were grown as monolayers in Eagle's medium (EM) supplemented with 10% fetal calf serum, 50 μg/ml gentamicin and 5 mM glutamine, in a humidified incubator buffered with 5% CO2, at 37° C. The culture medium is changed every four days and the cells are passaged every eight days and performed confluent monolayers (1.5×10^6 in a 10 cm plate or 10^5 cells per well in 24 wells plate). PC12 cells are originally round cells which, following several days in the presence of nerve growth factor (NGF) process nerves. Upon withdrawal of the NGF, the nerves retract and a process of apoptosis is initiated in the cells.
PC12 cells were grown in culture as explained above. The cells were divided into two groups and different compounds were added. To the first were added 5 μM 1,3-cyclic propandiol phosphate-5-caproylamido, while as a control to the second portion was added NGF. After a period of 8 days the two groups of PC12 cells were inspected by microscope.

[3] = test system: Rat hippocampal neurons; test: Neuronal morphology of cultured hippocampal neurons (stage 3); format: cell-based; details: three days
Description: Rat hippocampal neurons were cultured at low density in defined medium as described previously (Brann et al., 2002, J Bio Chem 277(12): 9812-9818), with slight modifications. Briefly, the dissected hippocampi of embryonic day 18 rats were dissociated by trypsinization (0.25% w/v, for 15 min at 37° C.). The tissue was washed in Mg^2+/Ca^2+-free Hanks' balanced salt solution (Invitrogen) and dissociated by repeated passage through a constricted Pasteur pipette. Cells were plated in minimal essential medium with 10% horse serum at a density of 25,000 cells per 13-mm glass cover slips that had been precoated with poly-L-lysine (1 mg/ml). After 2-4 hr, cover slips were transferred into 24-well plates (Nunc), containing B27 supplemented Neurobasal medium (Brewer, G. et al., 1993, J Neurosci Res 35: 567-576), and cultures were maintained in this defined medium throughout the experiment.
For morphological analysis, cover slips were removed from the 24-well plates on the 3rd day of culture. Neurons were fixed in 1% (v/v) glutaraldehyde in phosphate-buffered-saline for 20 min at 37° C., and mounted for microscopic examination in 50% glycerol in phosphate-buffered-saline. Neurons were examined by phase contrast microscopy using an Achroplan 32x/0.4 n.a. phase 2 objective of a Zeiss Axiovert 35 microscope. Neuronal growth was analyzed based on established developmental criteria of cultured hippocampal neurons (Schwarz et al., 1995, J Bio Chem 270(18): 10990-10998; Brann et al., 1999, J Neurosci 19(19): 8199-8206) as follows: (i) Only neurons at stage 3 were analyzed in this study. […] (iii) Only those cells in which the whole axon plexus could be unambiguously delineated were measured. (iv) The number of axonal branch points per cell were measured. […]
Images of neurons were acquired using NIH image (version 1.62) software. The analyze mode was set to a proportional ratio scale of pixel to μm, the outline of the neuron was copied using the freehand line tool, and the line length measured and analyzed according to the morphological criteria outlined above. […]

[4] = test system: PC12 cells; test: Rescue of PC12 cells from NGF deprivation (nerve rescue); format: cell-based, rat; details: data not shown
Description: as §1
Similar effects were observed (data not shown) for the following compounds. […] 2-Benzyloxy 1,3-chloropropanediol phosphate (Example 16 above) was dissolved in ethanol and from there introduced by 1:1000 dilution into PC12 cultures.

Molecule | intracellular tyrosine phosphorylation [1] | neuronal differentiation / axonal outgrowth [2] | other results
2-caproimido 1,3-chloropropanediol phosphate [Example 17] | induced tyrosine phosphorylation | neuronal differentiation | 
CCCCCC(=O)NC1COP(=O)(O)OC1 (stereo not shown) [Example 4, 1,3-cyclic propandiol phosphate-5-caproylamido] |  |  | neural outgrowth [2]: promoted neural outgrowth
CNC1COP(=O)(O)OC1 (stereo not shown) [Example 7, 1,3-cyclic propandiol phosphate-2-methylamino] |  |  | exposure time after which augmented tyrosine phosphorylation was noticed ([1]; CHO culture, 5 μM, 37° C.): ≤ 1 min; tyrosine phosphorylation of proteins (≈35 kDa, ≈45 kDa, ≈60-70 kDa) ([1]; CHO culture, 5 μM, 37° C., incubation 1 to 30 minutes, control 1,3-cyclic glycerphosphate, FIG. 1): Augmented tyrosine phosphorylation
O=P1(O)OCCCO1 [Example 9, 1,3-cyclic propanediol phosphate] |  | triggering axonal outgrowth | total elongation of axon plexus compared to non-treated cells ([3]; pyramidal rat embryo hippocampal cells, 5 μM, FIG. 3): 32%; increase in length of the longest axon (main axon) compared to non-treated cells ([3]; pyramidal rat embryo hippocampal cells, 5 μM, FIG. 4): about 20%; increase in axonal branch points per cell compared with non-treated cells ([3]; rat embryo hippocampal cells, FIG. 5): about 47%
CC1COP(=O)(O)OC1 (stereo not shown) [Example 10, 2-methyl 1,3-cyclic propanediol phosphate] |  | triggering axonal outgrowth | 
NP1(=O)OCCCO1 [Example 13, 1,3-cyclic propanediol phosphoamidate] | capable of inducing tyrosine phosphorylation | did not induce neuronal differentiation | rescue from NGF deprivation (nerve rescue) [4]: did rescue them from NGF deprivation
CCNP1(=O)OCCCO1 [Example 14, 1,3-cyclic propanediol N-ethyl phosphoamidate] | promoted tyrosine phosphorylation | did not induce neuronal differentiation | 
NGF: nerve growth factor, in whose presence PC12 cells differentiate to neuronal cells |  |  | neural outgrowth [2]: did not exhibit such promotion of neural outgrowth
